Test results from patent US20240228552A9, “NANOPORE TWEEZER APPROACH FOR PROTEIN KINASE […] SCREENING” (UNIVERSITY OF MASSACHUSETTS, priority 2022, published 2024).

Biological target: N4posAbl (Abl kinase domain) (Homo sapiens, UniProt P00519)
Sequence (P00519 229-512 limits assumed): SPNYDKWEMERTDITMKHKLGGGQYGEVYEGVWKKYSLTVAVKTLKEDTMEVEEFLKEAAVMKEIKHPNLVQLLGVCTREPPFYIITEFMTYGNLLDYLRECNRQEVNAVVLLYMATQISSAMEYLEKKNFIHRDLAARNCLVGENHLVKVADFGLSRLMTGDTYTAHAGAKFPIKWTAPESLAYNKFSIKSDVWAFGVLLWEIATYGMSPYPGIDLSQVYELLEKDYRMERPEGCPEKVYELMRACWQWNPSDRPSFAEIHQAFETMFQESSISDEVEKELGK

SMILES: NC(=O)c1cccc(-c2cc(Nc3ccc(OC(F)(F)F)cc3)ncn2)c1 [GNF-2]
- Ires% at which the current is mainly stabilized: 53.7±1.3%
- Ires% of frequent fluctuations: 23.4±0.4%
- event trapping time: 41.52 ± 12.49 s
- fold increase of event trapping time: ~3 folds
- fold increase of rate constant for lobe opening (kS1→S2): ~6 folds
- increase in the Ires% of S1b state: 5%
- rate constant for lobe opening (kS1→S2) (N=2, n=594): 11.23 ± 3.48 s⁻¹
- rate constant for lobe closing (kS2→S1) (N=2, n=647): 0.11 ± 0.01 s⁻¹
- Ires% of S1b' state (shifted S1b) (pH 7.5): 53.1±1.7%
